Consider five molecules from publication PMC3566133, “Molecular Analysis of the Prostacyclin Receptor’s Interaction with the PDZ1 Domain of Its Adaptor Protein PDZK1” (PLoS ONE, 2013).

Where a SMILES comes first, the peptide text is derived from it.

One data set concerns the target T1, PDZ1 domain of PDZK1 (Mus musculus, UniProt Q9JIL4).
T1 construct: Recombinant wild-type PDZ1 domain (0.03 mM in 150 mM NaCl); made in house
T1 sequence (Q9JIL4 9-90 limits assumed): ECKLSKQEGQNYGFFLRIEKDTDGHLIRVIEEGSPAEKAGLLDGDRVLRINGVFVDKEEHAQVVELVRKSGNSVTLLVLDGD
The data set can be described thus: Isothermal titration calorimetry (ITC), binding to recombinant PDZ1 domain of PDZK1. Conditions: VP-ITC microcalorimeter, 1.0 mM peptide titrated into 0.03 mM PDZ1, 150 mM NaCl, 25 mM Tris-pH 8.0, 0.5 mM TCEP, 20°C, triplicate, ORIGIN 7.0, read-out: Kd (binding affinity) to PDZ1. On the procedure:
Expression and purification of recombinant proteins corresponding to PDZ1 domain 1(PDZ1) of PDZK1 and to full length PDZK1 has been described previously. Binding of synthetic peptides based on the C-terminus of the IP (Fig. 1) was measured using a VP-ITC microcalorimeter (GE Healthcare). Three individual peptides were used: Peptide 1 corresponded to the seven carboxy-terminal amino acids of mouse (m) IP, to which two N-terminal lysines (not part of the IP protein sequence) were added to increase peptide solubility (KK^411IAACSLC^417, ‘target peptide’); Peptide 2 consisted of an octapeptide corresponding to the carboxy-terminus of IP (K^407SEAIAAC^414) devoid of the 3 terminal amino acids (-aaX/-^415SLC^417) which would be removed by proteolytic cleavage following farnesylation. […] Titration curves were analyzed and Kd values determined using ORIGIN 7.0 software (Origin Lab) with baseline correction. […]
Figure 2 Isothermal titration calorimetric analysis of the binding of a C-terminal peptide from IP to the PDZ1 domain of PDZK1. […] Titration curves were analyzed and Kd values determined using ORIGIN 7.0 software. […]
A general note: Isothermal titration calorimetry measures the heat released or taken up as one component is titrated into another.

Data set [1] has as its system third PDZ domain (PDZ3) of PDZK1. To be noted: cited from earlier work. An excerpt:
We recently solved the structures of the interactions between the HDL receptor SR-BI with the first and with the third PDZ domains of PDZK1 by X-ray crystallography, [32]. […] The crystal structure described herein, analyzing the interaction between the carboxy-terminus of the I ...

A further data set deals with PDZ1 of PDZK1. To be noted: cited from earlier work. The source says:
PDZK1 is a multi-PDZ domain-containing adaptor protein known to play a role in the expression, localization and function of several cell surface receptors and ion channels. One of its molecular interactants is the prostacyclin receptor (IP), whose interaction with PDZK1 was recently described. […] These interactions involve a Class I type of binding typically seen for protein interactants with carbox ... || We recently solved the structures of the interactions between the HDL receptor SR-BI with the first and with the third PDZ domains of PDZK1 by X-ray crystallography, [32]. […] The crystal structure described herein, analyzing the interaction between the carboxy-terminus of the I ...

Data set [2] deals with the molecule itself. The data set can be described thus: crystal structure; PDZ1-IP chimera at 1 mM, sitting drop vapor diffusion, 18°C, 0.1 M MES pH 6.5, 30% (w/v) PEG 300; 1.70 Å; the IP peptide of one molecule binds the PDZ1 of the adjacent molecule.
Data set [3] concerns the target T2, recombinant full-length PDZK1 (mouse, UniProt Q9JIL4 1-519).
T2 construct: PDZK1, full length, with PDZ1-PDZ4; source: recombinant, purified
T2 sequence (looked up): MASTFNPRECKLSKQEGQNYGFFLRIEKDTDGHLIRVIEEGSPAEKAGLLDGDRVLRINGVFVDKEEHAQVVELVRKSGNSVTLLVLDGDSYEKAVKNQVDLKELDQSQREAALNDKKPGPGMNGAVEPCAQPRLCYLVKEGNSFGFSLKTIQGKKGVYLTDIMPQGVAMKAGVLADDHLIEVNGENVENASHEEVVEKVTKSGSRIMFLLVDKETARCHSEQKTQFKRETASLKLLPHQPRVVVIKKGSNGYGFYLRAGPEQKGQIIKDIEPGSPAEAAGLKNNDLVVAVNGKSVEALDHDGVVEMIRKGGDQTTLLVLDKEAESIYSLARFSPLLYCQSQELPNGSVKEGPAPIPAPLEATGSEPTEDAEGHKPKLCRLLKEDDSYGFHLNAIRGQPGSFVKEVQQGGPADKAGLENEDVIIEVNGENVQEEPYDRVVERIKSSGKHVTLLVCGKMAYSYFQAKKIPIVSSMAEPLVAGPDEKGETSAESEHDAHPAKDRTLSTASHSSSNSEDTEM
Nature of the data set: ITC; 1.0 mM peptide injected in 10 µl aliquots into 0.03 mM PDZ1 or full length PDZK1 in the cell; 150 mM NaCl, 25 mM Tris pH 8.0, 0.5 mM TCEP, 20°C; VP-ITC. Conditions: both partners purified.

Data set [4] addresses T3, recombinant protein corresponding to PDZ domain 1 (PDZ1) of PDZK1 (mouse).
T3 sequence (Q9JIL4 whole entry, looked up): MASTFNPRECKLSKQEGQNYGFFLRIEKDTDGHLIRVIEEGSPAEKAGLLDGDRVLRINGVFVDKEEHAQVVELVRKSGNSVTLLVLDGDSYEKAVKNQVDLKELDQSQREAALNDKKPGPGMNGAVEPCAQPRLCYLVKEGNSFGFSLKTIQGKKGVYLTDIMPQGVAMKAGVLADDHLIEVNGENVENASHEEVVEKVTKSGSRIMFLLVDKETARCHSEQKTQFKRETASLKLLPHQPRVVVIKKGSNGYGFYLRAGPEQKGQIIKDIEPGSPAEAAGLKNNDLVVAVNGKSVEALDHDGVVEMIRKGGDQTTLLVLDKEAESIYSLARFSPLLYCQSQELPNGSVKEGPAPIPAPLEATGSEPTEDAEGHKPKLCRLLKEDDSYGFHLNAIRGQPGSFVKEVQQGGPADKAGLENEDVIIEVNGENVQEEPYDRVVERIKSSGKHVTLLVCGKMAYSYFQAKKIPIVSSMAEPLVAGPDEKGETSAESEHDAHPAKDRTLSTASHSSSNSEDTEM
The data set is described as above.

For data set [5], the target named is T4, PDZK1 residues 7-106 (PDZ1 domain 7-86 with interdomain residues 87-106), the PDZK1 portion of the PDZ1-IP … (mouse, UniProt Q9JIL4 7-106).
T4 construct: PDZK1 residues 7-106: PDZ1 (7-86) and interdomain residues 87-106; numbering of the intact murine PDZK1; Stood in the crystal joined on one chain with m8 (the chimera m6, with Gly-Ser at its N-terminus); written apart for the pair PDZ1 with the IP peptide; also called PDZ1 portion of the structure; source: E. coli JM109, purified, as part of the PDZ1-IP chimera; not shown: GST, N-terminal, cleaved
T4 sequence (looked up): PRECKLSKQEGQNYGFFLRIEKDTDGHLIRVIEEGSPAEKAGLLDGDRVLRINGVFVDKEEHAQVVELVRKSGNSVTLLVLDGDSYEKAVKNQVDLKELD
Nature of the data set: crystal structure; PDZ1-IP chimera at 1 mM, sitting drop vapor diffusion, 18°C, 0.1 M MES pH 6.5, 30% (w/v) PEG 300; 1.70 Å; the IP peptide of one molecule binds the PDZ1 of the adjacent molecule. Conditions: both partners purified.

Usually Kd stands for the free concentration of one partner at which half of the binding sites on the other are occupied at equilibrium, for simple one-to-one binding.

As to `CC[C@H](C)[C@H](NC(=O)[C@H](CCCCN)NC(=O)[C@@H](N)CCCCN)C(=O)N[C@@H](C)C(=O)N[C@@H](C)C(=O)N[C@@H](CS)C(=O)N[C@@H](CO)C(=O)N[C@@H](CC(C)C)C(=O)N[C@@H](CS)C(=O)O` [Peptide 1] (H-KKIAACSLC-OH), the Kd at PDZ1 domain of PDZK1 came to 8.2 µM.

For “-VLQEAKL [SR-BI, scavenger receptor class B, type I]”, in data set [1], the “Affinity of SR-BI/PDZ3 interaction” value was “lower affinity”. On PDZ1 of PDZK1 (PDZ1 of PDZK1, read-out: Kd of SR-BI binding to PDZ1), the Kd was 2.6 µM. Besides, the “Affinity of SR-BI/PDZ1 interaction” value in the data set on PDZ1 of PDZK1 is “high affinity”.

B1: chimeric PDZ1-IP recombinant protein (residues 7-106 of PDZK1 fused to the seven carboxy-terminal amino acids of mouse IP) (other)
chain: GSPRECKLSKQEGQNYGFFLRIEKDTDGHLIRVIEEGSPAEKAGLLDGDRVLRINGVFVDKEEHAQVVELVRKSGNSVTLLVLDGDSYEKAVKNQVDLKELDIAACSLC
notes: Gly-Ser dipeptide from the cloning vector (pGEX-4T-3), left at the N-terminus after thrombin digestion; PDZK1 residues 7-106: PDZ1 (7-86) and interdomain residues 87-106; numbering of the intact murine PDZK1; prostacyclin receptor (IP), mouse, seven carboxy-terminal residues 411-417; In the structure the chain is numbered 7Pro to 113Cys; also called PDZ1-IP chimera; PDZ1-IP target peptide …
For B1, the binding result in data set [2] is listed as “binds”.

B2: Peptide 1 (KK411IAACSLC417), seven carboxy-terminal amino acids of mouse IP with two added N-terminal lysines (peptide)
peptide: KKIAACSLC
notes: prostacyclin receptor (IP), mouse, seven carboxy-terminal residues 411-417; also called target peptide; C-terminal nonapeptide from IP; source: synthetic peptide, HPLC purified (Tufts University Core Facility)
Consider B2, for which the Kd was 60.2 ± 14.2 µM in data set [3] and 8.2 µM in data set [4].

B3: seven carboxy-terminal residues of mouse IP (411IAACSLC417), the IP portion of the PDZ1-IP chimera (peptide)
peptide: IAACSLC
notes: prostacyclin receptor (IP), mouse, seven carboxy-terminal residues 411-417; also numbered -6 to 0 from the C-terminal residue; Stood in the crystal fused to the C-terminus of m7 (the chimera m6); also called IP target peptide; IP peptide; source: E. coli JM109, purified, as part of the PDZ1-IP chimera
Regarding B3, the binding result in data set [5] is reported as “binds”.
